In PubChem BioAssay (NCI):
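Following 48 hours of exposure in 96-well plates, responses at five concentrations were used to interpolate endpoints linearly. GI50 = concentration required for 50% inhibition of growth. Definition used: TGI = concentration required for complete inhibition of growth.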

Experiments:
Experiment in all cases: NCI-60 cell line screen, 48 h
[1] = system: SF-295 CNS
[2] = system: MDA-MB-231 breast
[3] = system: SK-MEL-5 melanoma
[4] = system: HOP-92 NSCLC
[5] = system: SK-MEL-28 melanoma
[6] = system: UACC-62 melanoma
[7] = system: UO-31 renal
[8] = system: T-47D breast
[9] = system: CAKI-1 renal
[10] = system: A549 NSCLC
[11] = system: RPMI-8226 leukemia
[12] = system: MOLT-4 leukemia
[13] = system: SF-268 CNS
[14] = system: NCI/ADR-RES ovarian
[15] = system: OVCAR-5 ovarian
[16] = system: OVCAR-3 ovarian
[17] = system: NCI-H522 lung
[18] = system: U251 CNS
[19] = system: PC-3 prostate
[20] = system: SW-620 colon
[21] = system: OVCAR-4 ovarian
[22] = system: BT-549 breast
[23] = system: M14 melanoma
[24] = system: NCI-H23 lung
[25] = system: SR leukemia
[26] = system: SNB-19 CNS
[27] = system: HCC-2998 colon
[28] = system: HL-60(TB) leukemia
[29] = system: SK-MEL-2 melanoma
[30] = system: SF-539 CNS
[31] = system: HCT-116 colon
[32] = system: DU-145 prostate
[33] = system: HT29 colon
[34] = system: EKVX NSCLC
[35] = system: NCI-H460 lung
[36] = system: SK-OV-3 ovarian
[37] = system: SNB-75 CNS
[38] = system: LOX IMVI melanoma
[39] = system: RXF 393 renal
[40] = system: OVCAR-8 ovarian
[41] = system: SN12C renal
[42] = system: CCRF-CEM leukemia
[43] = system: K-562 leukemia
[44] = system: 786-0 renal
[45] = system: HCT-15 colon
[46] = system: UACC-257 melanoma
[47] = system: NCI-H226 lung
[48] = system: MCF7 breast
[49] = system: HS 578T breast
[50] = system: KM12 colon
[51] = system: IGROV1 ovarian
[52] = system: MALME-3M melanoma
[53] = system: COLO 205 colon
[54] = system: ACHN renal
[55] = system: HOP-62 NSCLC
[56] = system: TK-10 renal
[57] = system: MDA-MB-435
[58] = system: A498 renal

NS(=O)(=O)c1ccc(Nc2ncc(-c3ccccc3)o2)cc1
GI50 [1]: > 25 µM
TGI [1]: > 25 µM
GI50 [2]: > 25 µM
TGI [2]: > 25 µM
GI50 [3]: > 25 µM
TGI [3]: > 25 µM
GI50 [4]: > 25 µM
TGI [4]: > 25 µM
GI50 [5]: > 25 µM
TGI [5]: > 25 µM
GI50 [6]: > 25 µM
TGI [6]: > 25 µM
GI50 [7]: > 25 µM
TGI [7]: > 25 µM
GI50 [8]: > 25 µM
TGI [8]: > 25 µM
GI50 [9]: > 25 µM
TGI [9]: > 25 µM
GI50 [10]: > 25 µM
TGI [10]: > 25 µM
GI50 [11]: > 25 µM
TGI [11]: > 25 µM
GI50 [12]: > 25 µM
TGI [12]: > 25 µM
GI50 [13]: > 25 µM
TGI [13]: > 25 µM
GI50 [14]: > 25 µM
TGI [14]: > 25 µM
GI50 [15]: > 25 µM
TGI [15]: > 25 µM
GI50 [16]: > 25 µM
TGI [16]: > 25 µM
GI50 [17]: > 25 µM
TGI [17]: > 25 µM
GI50 [18]: > 25 µM
TGI [18]: > 25 µM
GI50 [19]: > 25 µM
TGI [19]: > 25 µM
GI50 [20]: > 22.1 µM
TGI [20]: > 25 µM
GI50 [21]: > 25 µM
TGI [21]: > 25 µM
GI50 [22]: > 25 µM
TGI [22]: > 25 µM
GI50 [23]: > 25 µM
TGI [23]: > 25 µM
GI50 [24]: > 25 µM
TGI [24]: > 25 µM
GI50 [25]: 9.69 µM
TGI [25]: > 25 µM
GI50 [26]: > 25 µM
TGI [26]: > 25 µM
GI50 [27]: > 25 µM
TGI [27]: > 25 µM
GI50 [28]: > 25 µM
TGI [28]: > 25 µM
GI50 [29]: > 25 µM
TGI [29]: > 25 µM
GI50 [30]: > 22.9 µM
TGI [30]: > 25 µM
GI50 [31]: > 25 µM
TGI [31]: > 25 µM
GI50 [32]: > 25 µM
TGI [32]: > 25 µM
GI50 [33]: > 25 µM
TGI [33]: > 25 µM
GI50 [34]: > 25 µM
TGI [34]: > 25 µM
GI50 [35]: > 25 µM
TGI [35]: > 25 µM
GI50 [36]: > 25 µM
TGI [36]: > 25 µM
GI50 [37]: > 9.68 µM
TGI [37]: > 25 µM
GI50 [38]: > 25 µM
TGI [38]: > 25 µM
GI50 [39]: > 25 µM
TGI [39]: > 25 µM
GI50 [40]: > 25 µM
TGI [40]: > 25 µM
GI50 [41]: > 25 µM
TGI [41]: > 25 µM
GI50 [42]: > 25 µM
TGI [42]: > 25 µM
GI50 [43]: > 25 µM
TGI [43]: > 25 µM
GI50 [44]: > 25 µM
TGI [44]: > 25 µM
GI50 [45]: > 25 µM
TGI [45]: > 25 µM
GI50 [46]: > 25 µM
TGI [46]: > 25 µM
GI50 [47]: > 25 µM
TGI [47]: > 25 µM
GI50 [48]: > 25 µM
TGI [48]: > 25 µM
GI50 [49]: 20.5 µM
TGI [49]: > 25 µM
GI50 [50]: > 25 µM
TGI [50]: > 25 µM
GI50 [51]: > 25 µM
TGI [51]: > 25 µM
GI50 [52]: > 25 µM
TGI [52]: > 25 µM
GI50 [53]: > 23.7 µM
TGI [53]: > 25 µM
GI50 [54]: > 25 µM
TGI [54]: > 25 µM
GI50 [55]: > 25 µM
TGI [55]: > 25 µM
GI50 [56]: > 25 µM
TGI [56]: > 25 µM
GI50 [57]: > 25 µM
TGI [57]: > 25 µM
GI50 [58]: > 19.6 µM
TGI [58]: > 25 µM
